# From PMC12362783 (Advanced Science, 2025)
# Assays:
# [1] = system: MDA‐MB‐468 cells; test: Cell apoptosis assay, Annexin V‐FITC/PI; assay type: cell-based; conditions: MDA‐MB‐468, 72 h
# Description: (§1) The cell apoptosis analysis was performed with cells seeded in 6‐well plates in growth media. The cells were allowed to attach overnight (8 h). The cultures were treated with different tested drugs for 72 h and evaluated using an Annexin V Flow Kit (BioLegend#B367750) according to the manufacturer's instructions. The data were analyzed by FlowJo software (Tree Star, Inc., Ashland, OR).
# [2] = system: MDA‐MB‐231 cells; test: Cell apoptosis assay, Annexin V‐FITC/PI; assay type: cell-based; conditions: MDA‐MB‐231, 72 h
# Description: as §1
# [3] = system: MDA‐MB‐468 cells; test: Cell cycle assay, flow cytometry (PI); assay type: cell-based; conditions: MDA‐MB‐468, 48 h; A7, B8 0.5 and 1.0 µM, controls 1.0 µM
# Description: (§2) The cell cycle analysis was performed with cells seeded in 6‐well plates in growth media. The cells were allowed to attach overnight (8 h). The cultures were treated with different tested drugs for 48 h. After treatment, cells were collected and fixed with 70% pre‐cold ethanol in PBS and stored at −20 °C overnight. Then washed the cells with PBS twice, and incubated with 100 µg mL^−1 RNase A at 37 °C for 1 h, stained with propidium iodide for 30 min avoid light at room temperature. The stained cells were analyzed by flow cytometry. The percentages of cells in the G1, S, and G2/M phases were determined. The data were analyzed by FlowJo software (Tree Star, Inc., Ashland, OR).
# [4] = system: MDA‐MB‐231 cells; test: Cell cycle assay, flow cytometry (PI); assay type: cell-based; conditions: MDA‐MB‐231, 48 h; A7, B8 0.5 and 1.0 µM, controls 1.0 µM
# Description: as §2
# [5] = molecular target: PARP1 (Homo sapiens, UniProt P09874); test: PARP enzymatic inhibition ELISA (PARP1); assay type: biochemical; conditions: n = 3, mean ± SD
# Sequence of PARP1 (P09874 whole entry): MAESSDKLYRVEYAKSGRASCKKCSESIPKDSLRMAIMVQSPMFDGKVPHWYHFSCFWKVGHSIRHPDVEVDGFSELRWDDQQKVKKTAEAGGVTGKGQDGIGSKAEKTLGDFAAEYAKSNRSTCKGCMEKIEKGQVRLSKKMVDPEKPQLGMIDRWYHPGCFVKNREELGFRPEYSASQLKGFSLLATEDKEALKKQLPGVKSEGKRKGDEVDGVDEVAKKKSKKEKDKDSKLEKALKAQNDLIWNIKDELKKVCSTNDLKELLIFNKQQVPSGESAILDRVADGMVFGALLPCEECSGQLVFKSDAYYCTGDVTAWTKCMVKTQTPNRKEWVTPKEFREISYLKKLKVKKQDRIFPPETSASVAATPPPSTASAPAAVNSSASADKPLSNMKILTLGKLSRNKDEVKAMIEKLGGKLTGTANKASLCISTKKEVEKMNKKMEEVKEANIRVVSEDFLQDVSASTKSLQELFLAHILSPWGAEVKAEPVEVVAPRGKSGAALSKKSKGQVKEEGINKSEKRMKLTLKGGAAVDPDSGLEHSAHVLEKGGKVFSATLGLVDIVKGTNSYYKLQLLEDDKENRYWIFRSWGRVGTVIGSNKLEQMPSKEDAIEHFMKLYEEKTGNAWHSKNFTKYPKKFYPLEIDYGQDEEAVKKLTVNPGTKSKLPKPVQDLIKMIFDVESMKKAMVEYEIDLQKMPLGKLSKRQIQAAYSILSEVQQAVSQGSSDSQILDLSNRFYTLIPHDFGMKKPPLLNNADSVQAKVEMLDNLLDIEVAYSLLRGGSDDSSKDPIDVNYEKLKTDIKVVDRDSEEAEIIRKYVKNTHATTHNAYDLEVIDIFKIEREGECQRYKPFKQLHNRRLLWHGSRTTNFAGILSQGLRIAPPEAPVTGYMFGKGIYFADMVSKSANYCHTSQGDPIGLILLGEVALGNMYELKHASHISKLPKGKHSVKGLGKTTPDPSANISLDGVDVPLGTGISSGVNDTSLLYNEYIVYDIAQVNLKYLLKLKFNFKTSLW
# Description: The PARP activity assay was performed by ChemPartner (Shanghai, China). Each well was precoated with histone (final conc.: 100 ng mL^−1) diluted in PBS buffer (contains 10 mmol L^−1 NaH2PO4 and 150 mmol L^−1 NaCl, pH 7.4) by incubation at 4 °C overnight. […] The reaction was initiated by the addition of 10 µL of PARP (final conc.: 0.007 nM/well) at room temperature for 60 min. Add 20 µL of anti‐Poly/Mono‐ADP Ribose Rabbit mAb. Incubate for 1.5 h at room temperature and wash the plate three times using PBST buffer. […] Incubate for 1 h at room temperature and wash the plate three times using PBST buffer. Add 25 µL Femto‐ECL Substrate A and Femto‐ECL Substrate B (1:1) mix. Immediately read chemiluminescence on Envision (Revvity, USA).
# [6] = system: MDA‐MB‐436; test: Cell growth inhibition, CellTiter‐Glo (CTG); assay type: cell-based; conditions: CTG, 5 days, n = 3
# Description: (§3) All cells were grown in a humidified incubator at 37 °C and 5% CO2.
# (§4) Growth viability was determined by the CellTiter‐Glo luminescent viability assay (Promega) 5 days after drug treatment. Cell viability was measured immediately after dosing (Day 0) and after 5 days of incubation using CellTiter‐Glo (CTG, Promega, G7573). Relative viability was calculated by normalizing the raw luminescence counts of the treated groups to those of the DMSO control groups. IC₅₀ values were calculated using sigmoidal dose‐response curve fitting with GraphPad Prism 9.0 software.
# [7] = molecular target: T1, ATR (Homo sapiens, UniProt Q13535); test: ATR kinase inhibition, Mobility Shift Assay; assay type: biochemical; conditions: n = 3, mean ± SD
# T1 construct: purchased Eurofins 14-953
# T1 sequence (Q13535 whole entry): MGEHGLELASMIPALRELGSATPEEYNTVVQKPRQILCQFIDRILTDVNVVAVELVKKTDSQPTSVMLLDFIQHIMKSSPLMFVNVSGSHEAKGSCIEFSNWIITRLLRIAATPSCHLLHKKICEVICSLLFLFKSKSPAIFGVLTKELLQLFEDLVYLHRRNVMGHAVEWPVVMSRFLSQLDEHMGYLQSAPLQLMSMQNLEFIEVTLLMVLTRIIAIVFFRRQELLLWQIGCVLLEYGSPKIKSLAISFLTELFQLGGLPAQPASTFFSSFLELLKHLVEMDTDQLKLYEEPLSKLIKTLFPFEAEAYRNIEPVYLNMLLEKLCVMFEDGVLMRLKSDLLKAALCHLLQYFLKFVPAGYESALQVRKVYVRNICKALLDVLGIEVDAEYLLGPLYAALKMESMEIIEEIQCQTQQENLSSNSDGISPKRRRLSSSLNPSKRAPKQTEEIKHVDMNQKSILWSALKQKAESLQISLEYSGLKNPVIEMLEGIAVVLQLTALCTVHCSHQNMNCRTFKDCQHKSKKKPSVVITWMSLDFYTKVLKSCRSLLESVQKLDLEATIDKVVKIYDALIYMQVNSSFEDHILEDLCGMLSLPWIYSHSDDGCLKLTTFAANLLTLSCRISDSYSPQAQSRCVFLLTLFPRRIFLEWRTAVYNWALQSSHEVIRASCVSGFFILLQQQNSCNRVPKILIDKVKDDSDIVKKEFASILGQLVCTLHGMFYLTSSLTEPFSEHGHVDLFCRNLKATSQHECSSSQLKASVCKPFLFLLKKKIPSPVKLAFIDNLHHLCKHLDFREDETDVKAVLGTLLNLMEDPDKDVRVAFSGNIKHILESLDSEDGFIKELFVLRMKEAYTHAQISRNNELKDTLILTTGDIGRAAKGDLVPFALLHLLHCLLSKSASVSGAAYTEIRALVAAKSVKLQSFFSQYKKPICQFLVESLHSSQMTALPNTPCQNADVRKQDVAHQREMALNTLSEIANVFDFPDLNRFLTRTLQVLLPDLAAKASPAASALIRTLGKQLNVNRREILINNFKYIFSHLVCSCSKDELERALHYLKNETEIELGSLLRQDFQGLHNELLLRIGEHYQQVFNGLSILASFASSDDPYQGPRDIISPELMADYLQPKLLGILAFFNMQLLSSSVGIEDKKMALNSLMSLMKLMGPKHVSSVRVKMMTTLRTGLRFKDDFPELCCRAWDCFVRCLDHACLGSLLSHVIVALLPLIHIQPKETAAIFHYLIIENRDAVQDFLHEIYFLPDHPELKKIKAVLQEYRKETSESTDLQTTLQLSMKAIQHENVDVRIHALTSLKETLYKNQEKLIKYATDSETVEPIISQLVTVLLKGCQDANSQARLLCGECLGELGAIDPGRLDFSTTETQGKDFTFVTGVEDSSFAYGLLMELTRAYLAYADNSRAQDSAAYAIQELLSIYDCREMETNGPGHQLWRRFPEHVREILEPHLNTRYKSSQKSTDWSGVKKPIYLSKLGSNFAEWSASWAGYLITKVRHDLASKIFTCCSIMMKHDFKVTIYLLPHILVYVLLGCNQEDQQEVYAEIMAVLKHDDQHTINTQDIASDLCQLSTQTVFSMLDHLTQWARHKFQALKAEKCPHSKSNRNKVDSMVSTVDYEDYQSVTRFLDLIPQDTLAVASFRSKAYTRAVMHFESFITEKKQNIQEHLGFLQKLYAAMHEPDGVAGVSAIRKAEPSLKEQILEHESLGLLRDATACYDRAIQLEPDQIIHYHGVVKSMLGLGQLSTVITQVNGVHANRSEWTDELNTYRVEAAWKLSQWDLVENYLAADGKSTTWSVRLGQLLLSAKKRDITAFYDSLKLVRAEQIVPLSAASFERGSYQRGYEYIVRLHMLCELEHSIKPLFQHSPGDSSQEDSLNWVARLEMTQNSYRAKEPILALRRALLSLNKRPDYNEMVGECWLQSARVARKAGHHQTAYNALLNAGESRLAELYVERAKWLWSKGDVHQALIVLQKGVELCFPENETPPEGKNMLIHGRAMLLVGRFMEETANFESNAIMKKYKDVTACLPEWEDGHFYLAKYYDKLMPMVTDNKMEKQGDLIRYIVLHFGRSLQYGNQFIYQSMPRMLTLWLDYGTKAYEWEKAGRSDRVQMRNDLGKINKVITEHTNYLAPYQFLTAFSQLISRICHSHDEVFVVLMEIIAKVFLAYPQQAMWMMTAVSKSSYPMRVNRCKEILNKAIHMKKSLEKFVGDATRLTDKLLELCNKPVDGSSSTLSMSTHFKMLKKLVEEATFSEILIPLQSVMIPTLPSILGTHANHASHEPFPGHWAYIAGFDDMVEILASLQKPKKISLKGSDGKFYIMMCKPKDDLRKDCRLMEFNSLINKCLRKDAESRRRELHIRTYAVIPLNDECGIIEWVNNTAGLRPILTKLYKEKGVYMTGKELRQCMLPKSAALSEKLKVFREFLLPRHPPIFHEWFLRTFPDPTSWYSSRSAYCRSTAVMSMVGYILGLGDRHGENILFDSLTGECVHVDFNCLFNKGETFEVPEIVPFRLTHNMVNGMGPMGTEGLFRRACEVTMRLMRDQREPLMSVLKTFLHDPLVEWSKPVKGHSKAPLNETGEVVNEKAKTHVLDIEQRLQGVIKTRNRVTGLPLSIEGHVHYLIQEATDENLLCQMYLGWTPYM
# T1 sequence (Q8WXE1 whole entry partner): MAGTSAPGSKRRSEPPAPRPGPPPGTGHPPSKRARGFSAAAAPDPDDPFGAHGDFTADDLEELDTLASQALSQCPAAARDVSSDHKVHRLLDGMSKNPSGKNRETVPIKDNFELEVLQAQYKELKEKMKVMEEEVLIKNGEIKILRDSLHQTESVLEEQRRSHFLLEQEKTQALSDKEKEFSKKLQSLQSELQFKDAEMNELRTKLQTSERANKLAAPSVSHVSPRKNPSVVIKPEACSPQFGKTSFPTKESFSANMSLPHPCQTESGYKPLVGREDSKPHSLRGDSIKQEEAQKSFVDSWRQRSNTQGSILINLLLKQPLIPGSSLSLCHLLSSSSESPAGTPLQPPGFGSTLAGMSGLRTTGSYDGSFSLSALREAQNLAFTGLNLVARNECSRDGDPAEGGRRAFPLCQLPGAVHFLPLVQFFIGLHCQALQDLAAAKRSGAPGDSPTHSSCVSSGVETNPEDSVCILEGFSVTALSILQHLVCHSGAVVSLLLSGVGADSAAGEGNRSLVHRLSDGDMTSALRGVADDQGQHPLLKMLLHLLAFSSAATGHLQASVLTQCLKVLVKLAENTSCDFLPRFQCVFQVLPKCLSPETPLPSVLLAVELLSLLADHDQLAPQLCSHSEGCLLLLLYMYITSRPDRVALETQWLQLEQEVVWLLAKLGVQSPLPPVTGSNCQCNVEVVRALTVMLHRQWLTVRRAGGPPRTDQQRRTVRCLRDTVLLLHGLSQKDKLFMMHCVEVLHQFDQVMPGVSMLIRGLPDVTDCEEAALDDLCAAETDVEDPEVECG
# Description: The in vitro ATR kinase inhibitory activities were determined by ChemPartner Co., Ltd. (Shanghai, China) using the Mobility Shift Assay. The tested compound was dissolved with DMSO and diluted to 1000/3 × of the final desired highest inhibitor concentration in the reaction. […] The assay wells were incubated at 28 °C for 4 h.
# [8] = system: MDA‐MB‐468; test: Cell growth inhibition, CellTiter‐Glo (CTG); assay type: cell-based; conditions: Homo sapiens, MDA-MB-468, 120 h; CTG, 5 days, n = 3
# Description: as §3
# (§5) […] […] Relative viability was calculated by normalizing the raw luminescence counts of the treated groups to those of the DMSO control groups. IC₅₀ values were calculated using sigmoidal dose‐response curve fitting with GraphPad Prism 9.0 software.
# [9] = system: MDA‐MB‐231; test: Cell growth inhibition, CellTiter‐Glo (CTG); assay type: cell-based; conditions: Homo sapiens, MDA-MB-231, 120 h, read-out: IC50 MDA‐MB‐231; CTG, 5 days, n = 3
# Description: as §3, §5
# [10] = system: MCF‐10A; test: Cell growth inhibition, normal breast cell line; assay type: cell-based; conditions: Homo sapiens, MCF-10A; @30 µM; read-out: MCF‐10A inhibitory rate at certain concentration
# Description: as §4
# [11] = system: MCF‐7; test: Cell growth inhibition, CellTiter‐Glo (CTG); assay type: cell-based; conditions: Homo sapiens, MCF7; n = 3
# Description: as §4
# [12] = system: MDA‐MB‐453; test: Cell growth inhibition, CellTiter‐Glo (CTG); assay type: cell-based; conditions: Homo sapiens, MDA-MB-453, read-out: IC50 MAD‐MB‐453
# Description: as §4
# [13] = Homo sapiens, MDA-MB-436, 120 h
Compound,ability to induce apoptosis vs combination of AZD6738 and Olaparib [1],ability to induce apoptosis vs combination of AZD6738 and Olaparib [2],effect on cell cycle distribution [3],effect on cell cycle distribution [4],IC50 [5],"IC50 [6, 13]",IC50 [7],IC50 [8],IC50 [9],inhibition at 30 µM [10],IC50 [6],IC50 [11],IC50 [12]
"C[C@@H]1COCCN1c1cc(C2(NC(=O)c3ccc(C(=O)N4CCN(C(=O)c5cc(Cc6n[nH]c(=O)c7ccccc67)ccc5F)CC4)cc3)CC2)nc(-c2ccnc3[nH]ccc23)n1 [Compound A7, (R) ‐4‐(4‐(2‐fluoro‐5‐((4‐oxo‐3,4‐dihydrophthalazin‐1‐yl)methyl)benzoyl)piperazine‐1‐carbonyl)‐N‐(1‐(6‐(3‐methylmorpholino)‐2‐(1H‐pyrrolo[2,3‐b]pyridin‐4‐yl)pyrimidin‐4‐yl)cyclopropyl)benzamide]",does not show a significant enhancement,does not show a significant enhancement,did not demonstrate any significant effects on the cell cycle,did not demonstrate any significant effects on the cell cycle,0.00056 ± 0.00021 µM,0.015 ± 0.001 µM,0.043 ± 0.007 µM,0.23 ± 0.07 µM,13.4 ± 3.44 µM,,,,
"O=C(c1cc(Cc2n[nH]c(=O)c3ccccc23)ccc1F)N1CCN(C(=O)C2CC2)CC1 [1 (Olaparib), Olaparib, reference compound]",,,did not significantly change the cell cycle distribution,did not significantly change the cell cycle distribution,,4.5 µM,,10.5 ± 0.59 µM,21.9 ± 2.36 µM,14.5%,4.53 ± 0.21 µM,> 30 µM,> 30 µM
